Laboratory results taken from publication PMC12255297 (Nucleic Acids Research, 2025).

Legend:
[1] = target: T1, C. botulinum SAM-AMP lyase (Clostridium botulinum, UniProt A5I3U9)
T1 construct: gene CBO2178

[2] = target: T1, C. botulinum SAM-AMP lyase; remark: listed apart in the source

T1 sequence (A5I3U9 1-124 limits assumed): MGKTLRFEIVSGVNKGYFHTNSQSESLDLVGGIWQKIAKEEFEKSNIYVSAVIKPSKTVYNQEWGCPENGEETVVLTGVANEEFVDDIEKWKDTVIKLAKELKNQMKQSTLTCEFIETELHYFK

SMILES	HPLC and LC-MS of cleavage to MTA-AMP and homoserine lactone [1]	electrophoretic mobility shift assay, native gel [2]
C[S+](CC[C@H](N)C(=O)O)C[C@H]1O[C@@H](n2cnc3c(N)ncnc32)[C@H](O)[C@@H]1OP(=O)(O)OC[C@H]1O[C@@H](n2cnc3c(N)ncnc32)[C@H](O)[C@@H]1O (some centres unmarked) [SAM-AMP]	HPLC analysis and mass spectrometry confirmed that SAM-AMP was degraded, generating the previously observed MTA-AMP product	
CSC[C@H]1O[C@@H](n2cnc3c(N)ncnc32)[C@H](O)[C@@H]1OP(=O)(O)OC[C@H]1O[C@@H](n2cnc3c(N)ncnc32)[C@H](O)[C@@H]1O [MTA-AMP]		SAM-AMP lyase binds its product MTA-AMP, but not SAH-AMP or SFG-AMP
